Earlier results in patent US12150970B2, “Composition for treatment of topical dermatological bacterial skin conditions” (ALPHYN BIOLOGICS, INC., priority 2021, dated 2024).

Tested on: cells
Conditions: compounds evaluated by Chen

Compound	effect on cell proliferation / healing (in words)
COc1ccc2c(=O)oc3c(OC)cc(CCN(C)C)c4c(=O)oc1c2c34 [Taspine, taspine]	little healing effects
COc1ccc([C@H]2Oc3c(OC)cc(CCCO)cc3[C@@H]2CO)cc1OC [dimethylcedrusin]	little healing effects
Oc1cc(O)c2c(c1)O[C@H](c1cc(O)c(O)c(O)c1)[C@@H](O)C2 [Gallocatechin, gallocatechin]	slightly stimulating to cell proliferation
epigallocatechin	slightly stimulating to cell proliferation
Oc1cc(O)c2c(c1)O[C@H](c1ccc(O)c(O)c1)[C@@H](O)C2 [Catechin, catechin]	little effect
epicatechin	little effect
